Experimental data reported in ChEMBL document CHEMBL4371024, “Synthesis and characterization of pyridoxine, nicotine and nicotinamide salts of dithiophosphoric acids as antibacterial agents against resistant wound infection” (Bioorg Med Chem, 2019).
Values after ≈ are worked out from the molar mass of the structure shown. Active and inactive are the calls of the source. The rule behind the calls is not given here.

Assays:
Staphylococcus aureus [1] = test: Antibacterial activity against Staphylococcus aureus ATCC 29213 after 24 hrs by broth dilution method; assay type: functional; settings: ATCC 29213, 24 h
Pseudomonas aeruginosa [2] = test: Antibacterial activity against Pseudomonas aeruginosa ATCC 27853 after 24 hrs by broth dilution method; assay type: functional; settings: ATCC 27853, 24 h
[3] = test system: Staphylococcus epidermidis; test: Antibacterial activity against Staphylococcus epidermidis after 24 hrs by broth dilution method; assay type: functional
Klebsiella pneumoniae = test: Antibacterial activity against Klebsiella pneumoniae after 24 hrs by broth dilution method; assay type: functional
Staphylococcus aureus [4] = test: Inhibition of extracellular component secretion and matrix formation in Staphylococcus aureus assessed as induction of bacterial aggregation at 1 uM by scanning electron microscopy; assay type: functional, organism-based
Pseudomonas aeruginosa [5] = test: Inhibition of extracellular component secretion and matrix formation in Pseudomonas aeruginosa assessed as induction of bacterial aggregation at 1 uM by scanning electron microscopy; assay type: functional, organism-based
Staphylococcus aureus [6] = test: Inhibition of extracellular component secretion and matrix formation in Staphylococcus aureus assessed as uncovering of bacterial cells at 1 uM by scanning electron microscopy; assay type: functional, organism-based
Pseudomonas aeruginosa [7] = test: Inhibition of extracellular component secretion and matrix formation in Pseudomonas aeruginosa assessed as uncovering bacterial cells at 1 uM by scanning electron microscopy; assay type: functional, organism-based
Staphylococcus aureus [8] = test: Inhibition of extracellular component secretion and matrix formation in Staphylococcus aureus assessed as induction of morphological changes at 1 uM by scanning electron microscopy; assay type: functional, organism-based
Staphylococcus aureus [9] = test: Inhibition of extracellular component secretion and matrix formation in Staphylococcus aureus assessed as inhibition of polysaccharide matrix formation at 1 uM by scanning electron microscopy; assay type: functional, organism-based
Pseudomonas aeruginosa [10] = test: Inhibition of extracellular component secretion and matrix formation in Pseudomonas aeruginosa assessed as induction of morphological changes at 1 uM by scanning electron microscopy; assay type: functional, organism-based
Pseudomonas aeruginosa [11] = test: Inhibition of extracellular component secretion and matrix formation in Pseudomonas aeruginosa assessed as inhibition of polysaccharide matrix formation at 1 uM by scanning electron microscopy; assay type: functional, organism-based
Erythrocyte = test: Hemolytic activity in human erythrocytes at 1 mM; assay type: ADME, cell-based; settings: 1000 µM

SMILES | MIC (Staphylococcus aureus [1]) [µM] | MIC (Pseudomonas aeruginosa [2]) [µM] | MIC [3] [µM] | MIC (Klebsiella pneumoniae) [µM] | also measured
CC1(C)[C@H]2CC[C@]1(C)[C@H](OP(=S)(S)O[C@@H]1C[C@@H]3CC[C@@]1(C)C3(C)C)C2.CN1CCC[C@H]1c1cccnc1 | 20 | 320 | 20 | 320 | 
CN1CCC[C@H]1c1cccnc1.C[C@@H]1[C@@H](OP(=S)(S)O[C@H]2C[C@H]3C[C@@H]([C@@H]2C)C3(C)C)C[C@H]2C[C@@H]1C2(C)C | 20 | 320 | 20 | 320 | 
C[C@@H]1[C@@H](OP(=S)(S)O[C@H]2C[C@H]3C[C@@H]([C@@H]2C)C3(C)C)C[C@H]2C[C@@H]1C2(C)C.Cc1ncc(CO)c(CO)c1O | 20 | 320 | 20 | 320 | 
Cc1ccc(C(C)C)c(OP(=S)(S)Oc2cc(C)ccc2C(C)C)c1.NC(=O)c1cccnc1 | 380 | 380 | 380 | 1500 | 
CN[C@H](CC(C)C)C(=O)N[C@H]1C(=O)N[C@@H](CC(N)=O)C(=O)N[C@H]2C(=O)N[C@H]3C(=O)N[C@H](C(=O)N[C@H](C(=O)O)c4cc(O)cc(O)c4-c4cc3ccc4O)[C@H](O)c3ccc(c(Cl)c3)Oc3cc2cc(c3O[C@@H]2O[C@H](CO)[C@@H](O)[C@H](O)[C@H]2O[C@H]2C[C@](C)(N)[C@H](O)[C@H](C)O2)Oc2ccc(cc2Cl)[C@H]1O [VANCOMYCIN] | 1.4 (≈ 2.03 µg/mL) | > 5000 | 0.7 (≈ 1.01 µg/mL) | > 5000 | 
Cc1ccc(C(C)C)c(OP(=S)(S)Oc2cc(C)ccc2C(C)C)c1.Cc1ncc(CO)c(CO)c1O | 530 | 530 | 530 | 530 | 
CC(C)[C@@H]1CC[C@@H](C)C[C@H]1OP(=S)(S)O[C@@H]1C[C@H](C)CC[C@H]1C(C)C.Cc1ncc(CO)c(CO)c1O |  |  |  |  | Activity (Staphylococcus aureus [4]): Active; Activity (Pseudomonas aeruginosa [5]): Active; Activity (Staphylococcus aureus [6]): Active; Activity (Pseudomonas aeruginosa [7]): Active
CC(C)[C@@H]1CC[C@@H](C)C[C@H]1OP(=S)(S)O[C@@H]1C[C@H](C)CC[C@H]1C(C)C.CN1CCC[C@H]1c1cccnc1 |  |  |  |  | Activity (Staphylococcus aureus [8]): Active; Activity (Staphylococcus aureus [9]): Active; Activity (Pseudomonas aeruginosa [10]): Active; Activity (Pseudomonas aeruginosa [11]): Active
Cc1ccc(C(C)C)c(OP(=S)(S)Oc2cc(C)ccc2C(C)C)c1 | 3800 (≈ 1500 µg/mL) | 3800 (≈ 1500 µg/mL) | 3800 (≈ 1500 µg/mL) | 3800 (≈ 1500 µg/mL) | 
CCCCOP(=S)(S)OCCCC.CN1CCC[C@H]1c1cccnc1 | 1810 | 3630 | 1810 | 3630 | 
CC(C)[C@@H]1CC[C@@H](C)C[C@H]1OP(=S)(S)O[C@@H]1C[C@H](C)CC[C@H]1C(C)C | 190 (≈ 77.3 µg/mL) | 380 (≈ 155 µg/mL) | 380 (≈ 155 µg/mL) | 1540 (≈ 626 µg/mL) | Activity (Erythrocyte): Toxic
